Data reported in patent US11279687B2, “Compounds and compositions for the inhibition of NAMPT” (Valo Health, Inc., priority 2010, dated 2022).

How the values were obtained:
[1] = target: NAMPT (Homo sapiens (Human), UniProt P43490); assay: NAMPT biochemical inhibition assay (NMN quantified by mass spectrometry); conditions: NAMPT biochemical inhibition; read-out: Biochem IC50
[2] = tested on: A2780 cells; assay: In-vitro cell proliferation assay (SRB), A2780 cells; type: cell-based; conditions: Homo sapiens, A2780, 72 h, A2780 cells, 72 hours, SRB; read-out: A2780 IC50;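 further: viable cell number read as SRB absorbance, background from media-only wells subtracted, IC50 interpolated from percent inhibition at two bracketing compound concentrations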

NAMPT, sequence (P43490 whole entry): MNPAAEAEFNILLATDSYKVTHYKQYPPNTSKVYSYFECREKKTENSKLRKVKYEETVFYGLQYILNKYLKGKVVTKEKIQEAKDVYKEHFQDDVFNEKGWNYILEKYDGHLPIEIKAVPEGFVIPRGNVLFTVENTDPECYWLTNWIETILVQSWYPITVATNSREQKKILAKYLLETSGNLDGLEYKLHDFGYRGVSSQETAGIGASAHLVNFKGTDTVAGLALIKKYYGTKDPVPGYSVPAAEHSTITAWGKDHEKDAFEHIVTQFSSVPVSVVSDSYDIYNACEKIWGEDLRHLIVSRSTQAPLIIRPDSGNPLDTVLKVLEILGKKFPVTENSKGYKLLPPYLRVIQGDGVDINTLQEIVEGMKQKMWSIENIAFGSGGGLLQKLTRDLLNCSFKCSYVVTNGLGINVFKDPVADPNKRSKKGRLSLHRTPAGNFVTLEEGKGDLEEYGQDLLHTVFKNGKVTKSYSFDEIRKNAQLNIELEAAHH

IC50 [1] [nM]	IC50 [2] [nM]	Structure (SMILES)
3	6	CC(C)c1ccc(S(=O)(=O)c2ccc(NC(=O)NCc3cccnc3)cc2)c(Cl)n1 [3-{4-[2-chloro-6-(propan-2-yl)pyridine-3-sulfonyl]phenyl}-1-(pyridin-3-ylmethyl)urea]
4	89	COCCC1CCCN(S(=O)(=O)c2ccc(NC(=O)NCc3cccnc3)cc2)C1 (stereo not shown) [3-{4-[3-(2-methoxyethyl)piperidine-1-sulfonyl]phenyl}-1-(pyridin-3-ylmethyl)urea]
4	14.2	O=C(NCc1cccnc1)Nc1ccc(S(=O)(=O)c2ccnc(N3CCOCC3)c2Cl)cc1 [3-{4-[3-chloro-2-(morpholin-4-yl)pyridine-4-sulfonyl]phenyl}-1-(pyridin-3-ylmethyl)urea]
5	101	Cc1ccc(C)c(N2CCN(S(=O)(=O)c3ccc(NC(=O)NCc4cccnc4)cc3)CC2)c1 [3-{4-[4-(2,5-dimethylphenyl)piperazine-1-sulfonyl]phenyl}-1-(pyridin-3-ylmethyl)urea]
2	6	CCOc1ccccc1N1CCN(S(=O)(=O)c2ccc(NC(=O)NCc3cccnc3)cc2)CC1 [3-{4-[4-(2-ethoxyphenyl)piperazine-1-sulfonyl]phenyl]-1-(pyridin-3-ylmethyl)urea]
7	35	COc1ccccc1N1CCN(S(=O)(=O)c2ccc(NC(=O)NCc3cccnc3)cc2)CC1 [3-{4-[4-(2-methoxyphenyl)piperazine-1-sulfonyl]phenyl}-1-(pyridin-3-ylmethyl)urea]
6	106	Cc1ccccc1N1CCN(S(=O)(=O)c2ccc(NC(=O)NCc3cccnc3)cc2)CC1 [3-{4-[4-(2-methylphenyl)piperazine-1-sulfonyl]phenyl}-1-(pyridin-3-ylmethyl)urea]
3	29	O=C(NCc1cccnc1)Nc1ccc(S(=O)(=O)N2CCN(c3c(Cl)cncc3Cl)CC2)cc1 [3-{4-[4-(3,5-dichloropyridin-4-yl)piperazine-1-sulfonyl]phenyl}-1-(pyridin-3-ylmethyl)urea]
5.2	956	O=C(NCc1cccnc1)Nc1ccc(S(=O)(=O)N2CCC(O)(c3cccc(Cl)c3)CC2)cc1 [3-{4-[4-(3-chlorophenyl)-4-hydroxypiperidine-1-sulfonyl]phenyl}-1-(pyridin-3-ylmethyl)urea]
1	18	O=C(NCc1cccnc1)Nc1ccc(S(=O)(=O)N2CCN(c3ncccc3Cl)CC2)cc1 [3-{4-[4-(3-chloropyridin-2-yl)piperazine-1-sulfonyl]phenyl}-1-(pyridin-3-ylmethyl)urea]
2	50	COc1ccc(Cl)cc1N1CCN(S(=O)(=O)c2ccc(NC(=O)NCc3cccnc3)cc2)CC1 [3-{4-[4-(5-chloro-2-methoxyphenyl)piperazine-1-sulfonyl]phenyl}-1-(pyridin-3-ylmethyl)urea]
2	162	Cc1ccc(Cl)cc1N1CCN(S(=O)(=O)c2ccc(NC(=O)NCc3cccnc3)cc2)CC1 [3-{4-[4-(5-chloro-2-methylphenyl)piperazine-1-sulfonyl]phenyl}-1-(pyridin-3-ylmethyl)urea]
5	14	CCN(CC)C1CCN(S(=O)(=O)c2ccc(NC(=O)NCc3cccnc3)cc2)CC1 [3-{4-[4-(diethylamino)piperidine-1-sulfonyl]phenyl}-1-(pyridin-3-ylmethyl)urea]
4	3	CCCN(CCC)C1CCN(S(=O)(=O)c2ccc(NC(=O)NCc3cccnc3)cc2)CC1 [3-{4-[4-(dipropylamino)piperidine-1-sulfonyl]phenyl}-1-(pyridin-3-ylmethyl)urea]
22	130	COCC1CCN(S(=O)(=O)c2ccc(NC(=O)NCc3cccnc3)cc2)CC1 [3-{4-[4-(methoxymethyl)piperidine-1-sulfonyl]phenyl}-1-(pyridin-3-ylmethyl)urea]
3	74.9	CN(C)c1ccc(S(=O)(=O)c2ccc(NC(=O)NCc3cccnc3)cc2)cn1 [3-{4-[6-(dimethylamino)pyridine-3-sulfonyl]phenyl}-1-(pyridin-3-ylmethyl)urea]
17	159	CC(C)(C)CNS(=O)(=O)c1ccc(NC(=O)NCc2cccnc2)cc1 [3-{4-[(2,2-dimethylpropyl)sulfamoyl]phenyl}-1-(pyridin-3-ylmethyl)urea]
1	446	O=C(NCc1cccnc1)Nc1ccc(S(=O)(=O)c2cccc(Cl)c2Cl)cc1 [3-{4-[(2,3-dichlorobenzene)sulfonyl]phenyl}-1-(pyridin-3-ylmethyl)urea]
2	30	O=C(NCc1cccnc1)Nc1ccc(S(=O)(=O)Nc2cccc(Cl)c2Cl)cc1 [3-{4-[(2,3-dichlorophenyl)sulfamoyl]phenyl}-1-(pyridin-3-ylmethyl)urea]
4	546	O=C(NCc1cccnc1)Nc1ccc(S(=O)(=O)c2cccc(F)c2F)cc1 [3-{4-[(2,3-difluorobenzene)sulfonyl]phenyl}-1-(pyridin-3-ylmethyl)urea]
5	298	Cc1cccc(S(=O)(=O)c2ccc(NC(=O)NCc3cccnc3)cc2)c1C [3-{4-[(2,3-dimethylbenzene)sulfonyl]phenyl}-1-(pyridin-3-ylmethyl)urea]

IC50 [1] [nM]	IC50 [2] [nM]	Structure (SMILES)
0.9	74	Cc1cccc(NS(=O)(=O)c2ccc(NC(=O)NCc3cccnc3)cc2)c1C [3-{4-[(2,3-dimethylphenyl)sulfamoyl]phenyl}-1-(pyridin-3-ylmethyl)urea]
4	827	O=C(NCc1cccnc1)Nc1ccc(S(=O)(=O)c2ccc(Cl)cc2Cl)cc1 [3-{4-[(2,4-dichlorobenzene)sulfonyl]phenyl}-1-(pyridin-3-ylmethyl)urea]
3	189	O=C(NCc1cccnc1)Nc1ccc(S(=O)(=O)Nc2ccc(Cl)cc2Cl)cc1 [3-{4-[(2,4-dichlorophenyl)sulfamoyl]phenyl]-1-(pyridin-3-ylmethyl)urea]
1	344	O=C(NCc1cccnc1)Nc1ccc(S(=O)(=O)c2ccc(F)cc2F)cc1 [3-{4-[(2,4-difluorobenzene)sulfonyl]phenyl}-1-(pyridin-3-ylmethyl)urea]
5	47	COc1ccc(S(=O)(=O)c2ccc(NC(=O)NCc3cccnc3)cc2)c(OC)c1 [3-{4-[(2,4-dimethoxybenzene)sulfonyl]phenyl}-1-(pyridin-3-ylmethyl)urea]
3	109	COc1ccc(NS(=O)(=O)c2ccc(NC(=O)NCc3cccnc3)cc2)c(OC)c1 [3-{4-[(2,4-dimethoxyphenyl)sulfamoyl]phenyl}-1-(pyridin-3-ylmethyl)urea]
18	967	Cc1ccc(S(=O)(=O)c2ccc(NC(=O)NCc3cccnc3)cc2)c(C)c1 [3-{4-[(2,4-dimethylbenzene)sulfonyl]phenyl}-1-(pyridin-3-ylmethyl)urea]
6	652	O=C(NCc1cccnc1)Nc1ccc(S(=O)(=O)c2cc(Cl)ccc2Cl)cc1 [3-{4-[(2,5-dichlorobenzene)sulfonyl]phenyl}-1-(pyridin-3-ylmethyl)urea]
4	105	COc1cc(F)c(S(=O)(=O)c2ccc(NC(=O)NCc3cccnc3)cc2)cc1F [3-{4-[(2,5-difluoro-4-methoxybenzene)sulfonyl]phenyl}-1-(pyridin-3-ylmethyl)urea]
4	403	O=C(NCc1cccnc1)Nc1ccc(S(=O)(=O)c2cc(F)ccc2F)cc1 [3-{4-[(2,5-difluorobenzene)sulfonyl]phenyl}-1-(pyridin-3-ylmethyl)urea]
1	7	COc1ccc(OC)c(S(=O)(=O)c2ccc(NC(=O)NCc3cccnc3)cc2)c1 [3-{4-[(2,5-dimethoxybenzene)sulfonyl]phenyl}-1-(pyridin-3-ylmethyl)urea]
1.2	4	COc1ccc(OC)c(NS(=O)(=O)c2ccc(NC(=O)NCc3cccnc3)cc2)c1 [3-{4-[(2,5-dimethoxyphenyl)sulfamoyl]phenyl}-1-(pyridin-3-ylmethyl)urea]
14	473	Cc1ccc(C)c(S(=O)(=O)c2ccc(NC(=O)NCc3cccnc3)cc2)c1 [3-{4-[(2,5-dimethylbenzene)sulfonyl]phenyl}-1-(pyridin-3-ylmethyl)urea]
6	116	Cc1ccc(C)c(NS(=O)(=O)c2ccc(NC(=O)NCc3cccnc3)cc2)c1 [3-{4-[(2,5-dimethylphenyl)sulfamoyl]phenyl}-1-(pyridin-3-ylmethyl)urea]
7	26	COc1cccc(OC)c1S(=O)(=O)c1ccc(NC(=O)NCc2cccnc2)cc1 [3-{4-[(2,6-dimethoxybenzene)sulfonyl]phenyl}-1-(pyridin-3-ylmethyl)urea]
8	387	Cc1cccc(C)c1S(=O)(=O)c1ccc(NC(=O)NCc2cccnc2)cc1 [3-{4-[(2,6-dimethylbenzene)sulfonyl]phenyl}-1-(pyridin-3-ylmethyl)urea]
2	326	CC(=O)c1ccccc1S(=O)(=O)c1ccc(NC(=O)NCc2cccnc2)cc1 [3-{4-[(2-acetylbenzene)sulfonyl]phenyl}-1-(pyridin-3-ylmethyl)urea]
6	250	O=C(NCc1cccnc1)Nc1ccc(S(=O)(=O)c2ccccc2Br)cc1 [3-{4-[(2-bromobenzene)sulfonyl]phenyl}-1-(pyridin-3-ylmethyl)urea]
2	24	O=C(NCc1cccnc1)Nc1ccc(S(=O)(=O)Nc2ccccc2Br)cc1 [3-{4-[(2-bromophenyl)sulfamoyl]phenyl}-1-(pyridin-3-ylmethyl)urea]
0.9	36	O=C(NCc1cccnc1)Nc1ccc(S(=O)(=O)Nc2ccc(F)cc2Cl)cc1 [3-{4-[(2-chloro-4-fluorophenyl)sulfamoyl]phenyl}-1-(pyridin-3-ylmethyl)urea]
